Where “and” joins values, the source holds several entries; their conditions need not be identical. Equal entries are not always repeated.
Columns and labels:
Assay type in all cases: biochemical, bovine
PK36 = experiment: 32P kinase assay of purified PK36 with dephosphorylated NF-M as second substrate
Protocol: (§1) An alternative method for assaying the phosphorylating activity of the kinases was by ^32P assays. Radioactive assays in the same buffer system as for immunoassays contained 5 μg of HTP-purified native NF-triplet as substrate (3μg of substrate proteins other than NFs) and 150-250 cpm/pmole gamma-^32P-ATP. Incubation'times were 15 minutes at 37° C. for activities up to about 1 pmole/min/assay, since the assay responses were linear within these time intervals. Assays were stopped by cooling on ice, addition of 20 μl 25 mM EDTA and immediate transfer of the mixture onto glass filters (Whatman GF/A) wetted with 10% TCA/2% sodium pyrophosphate (PPA). The glass filters were washed twice for 1 hour and once for at least 3 hours in 10% TCA/2% PPA and finally in ethanol and were air-dried. Radioactivity was assessed by scintillation counting (Beckman LS 230) with 5 ml “Liquiscint” (National Diagnostics) for 20 minutes. Assays were routinely carried out in triplicate except for some duplicate assays in a few explicitly mentioned cases; a control assay lacking NFs was subtracted from the mean value.
(§2) The ATP dependence and inhibition of the activities of PK40 and PK36 were determined at 2 mM Mg^2+ with soluble dephosphorylated NF-M as second substrate to avoid uncertainties arising from the aggregation state of NF-triplet in suspension. The optima were at 0.5-1 mM ATP for both kinases. Apparent Km values for ATP of both kinases were estimated from Woolf-Hanes plots (Dixon and Webb, 1979) for a range of ATP concentrations sufficiently below the onset of inhibition. […] The apparent Km of PK36 was approximately 50 μM.

PK40 = target: T1, PK40 (Bos taurus, UniProt P46196); experiment: 32P kinase assay of purified PK40 with dephosphorylated NF-M as second substrate
T1 construct: from tissue; host or cells: bovine brain
T1 sequence (P46196 2-360 limits assumed): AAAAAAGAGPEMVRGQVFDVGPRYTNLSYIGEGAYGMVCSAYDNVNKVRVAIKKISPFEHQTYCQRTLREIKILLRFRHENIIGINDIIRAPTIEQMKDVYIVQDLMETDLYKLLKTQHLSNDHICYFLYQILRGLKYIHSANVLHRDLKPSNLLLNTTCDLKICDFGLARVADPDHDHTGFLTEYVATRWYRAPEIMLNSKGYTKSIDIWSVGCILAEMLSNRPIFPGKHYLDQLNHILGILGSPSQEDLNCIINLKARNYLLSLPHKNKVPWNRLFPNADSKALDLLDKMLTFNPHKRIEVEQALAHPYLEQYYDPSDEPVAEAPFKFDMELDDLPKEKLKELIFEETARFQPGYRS
Protocol: as §1, §2

[1] = system: KSP-phosphorylating kinases; experiment: Immuno-dotblot assay (SMI-31/SMI-34 epitope reconstitution on dephosphorylated NF-triplet) with crude 35-45% ammonium sulfate fraction; conditions: crude enzyme
Protocol: The preferred method for the immunoassay for detecting KSP-phosphorylating kinases is as follows. […] After incubation at 37° C. for 18 hours, assays were diluted to 100 μl with 10 mM PBS, pH 7.2, and aliquots of 50 μl were spotted on nitrocellulose (0.22 μm, Schleicher and Schull). […] Blots were incubated with SMI mAbs for at least 2 hours. The blots were then washed five times. […] All incubations and washes were at room temperature. Incubations were sealed in plastic bags with 50 μl of solution/cm membrane. The foregoing procedure involved parameters that were optimized as follows. […] This activity was NF-specific, since the corresponding control immunoassay which lacked dephosphorylated native NF-triplet was almost negative for this fraction. […] The assays were performed with 0.5 mM Mg^2+ (unless indicated otherwise). […] Immuno-dotblot-assays were conducted to determine the optimal Mg^2+ and ATP concentrations using the SMI-31 and SMI-34 antibodies. […] Control assays were without NFs using 0.4 micrograms crude enzyme.

[2] = 2 mM Mg2+, 5 mM ATP, % of control (2 mM Mg2+, 1 mM ATP)
[3] = ATP in relatively small excess over Mg2+
[4] = 5 mM Mg2+ over 1 mM ATP or 5 mM over 5 mM ATP
[5] = 5 mM Mg2+, 1 mM ATP, % of control
[6] = 5 mM Mg2+, 5 mM ATP, % of control

Nc1ncnc2c1ncn2[C@@H]1O[C@H](COP(=O)(O)OP(=O)(O)OP(=O)(O)O)[C@@H](O)[C@H]1O [ATP]
ATP optimum of PK36 activity (PK36; 2 mM Mg2+): 0.5 to 1 mM
relative activity [%] of PK36 (PK36; [2]): 14% and 14 ± 0.5%
Km (PK36; 2 mM Mg2+, Woolf-Hanes plots, read-out: apparent Km for ATP of PK36): ~50 µM
inhibition of PK36 by excess ATP (PK36; [3]): strongly inhibited
ATP optimum of PK40 activity (PK40; 2 mM Mg2+): 0.5 to 1 mM
relative activity [%] of PK40 (PK40; [2]): 7% and 7.2 ± 6.9%
Km (PK40; 2 mM Mg2+, Woolf-Hanes plots, mean ±S.D. of three determinations, read-out: apparent Km for ATP of PK40): 93 ± 12 µM
inhibition of PK40 by excess ATP (PK40; [3]): strongly inhibited
effect on kinase activity ([1]; ATP 5 mM): inhibited the kinase activity

Nc1nc2c(ncn2[C@@H]2O[C@H](COP(=O)(O)OP(=O)(O)OP(=O)(O)O)[C@@H](O)[C@H]2O)c(=O)[nH]1 [GTP]
ability to substitute for ATP [1]: could not substitute for ATP

[Mg+2] [Mg^2, magnesium]
inhibition of PK36 with excess Mg2+ (PK36; [4]): significantly reduced
relative activity [%] of PK36 (PK36; [5]): 40 ± 0.2%
relative activity [%] of PK36 (PK36; [6]): 38 ± 2.2%
inhibition of PK40 with excess Mg2+ (PK40; [4]): little or no inhibition
relative activity [%] of PK40 (PK40; [5]): 107 ± 3.5%
relative activity [%] of PK40 (PK40; [6]): 78 ± 7.1%

[Mn+2] [Mn^2+]
effectiveness relative to Mg2+ [1]: about twice as effective as Mg^2+

[Cl-].[Na+] [NaCl, sodium chloride]
relative activity [%] of PK36 (PK36; NaCl 150 mM, % of control): 40 ± 0.8%
relative activity [%] of PK40 (PK40; NaCl 150 mM, % of control): 27 ± 1.8%
concentration that diminished the assay response ([1]; attributed to ionic strength): greater than 20 mM

From patent publication US20020025942A1, “NOVEL TAU/NEUROFILAMENT PROTEIN KINASES” (priority 1991, published 2002)
